Laboratory results taken from ChEMBL document CHEMBL1201862, “PubChem BioAssay data set” (2004).
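Growth conditions: 96-well plates. Treatment: test compound, 48 hours, 5 concentrations. Analysis: linear interpolation between bracketing concentrations; unreached endpoints set to highest concentration. GI50 = concentration required for 50% inhibition of growth.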 The source made the active and inactive calls. Cut-off read from the data, not from the text of the source: active = GI50 up to about 1.1 µM and inactive = higher.

Key:
Test in all cases: growth of human tumour cells (NCI), 48 h
PC-3 = system: PC-3
HOP-62 = system: HOP-62
OVCAR-5 = system: OVCAR-5
OVCAR-4 = system: OVCAR-4
Malme-3M = system: Malme-3M
SW-620 = system: SW-620
SK-MEL-5 = system: SK-MEL-5
UACC-62 = system: UACC-62
SF-268 = system: SF-268
U-251 = system: U-251
M14 = system: M14
COLO 205 = system: COLO 205
EKVX = system: EKVX
RPMI-8226 = system: RPMI-8226
CCRF-CEM = system: CCRF-CEM
IGROV-1 = system: IGROV-1
OVCAR-8 = system: OVCAR-8
NCI-H23 = system: NCI-H23
SNB-19 = system: SNB-19
DU-145 = system: DU-145
786-0 = system: 786-0
MCF7 = system: MCF7
MDA-MB-435 = system: MDA-MB-435
T47D = system: T47D
NCI/ADR-RES = system: NCI/ADR-RES
Hs-578T = system: Hs-578T
KM12 = system: KM12
SF-295 = system: SF-295
HT-29 = system: HT-29
SN12C = system: SN12C
UO-31 = system: UO-31
HCC 2998 = system: HCC 2998
NCI-H226 = system: NCI-H226
SK-OV-3 = system: SK-OV-3
K562 = system: K562
CAKI-1 = system: CAKI-1
OVCAR-3 = system: OVCAR-3
HOP-92 = system: HOP-92
HCT-15 = system: HCT-15
MOLT-4 = system: MOLT-4
RXF 393 = system: RXF 393
LOX IMVI = system: LOX IMVI
HL-60 = system: HL-60
A498 = system: A498
MDA-N = system: MDA-N
NCI-H460 = system: NCI-H460
ACHN = system: ACHN
BT-549 = system: BT-549
UACC-257 = system: UACC-257
SF-539 = system: SF-539
HCT-116 = system: HCT-116
A549 = system: A549
TK-10 = system: TK-10
NCI-H522 = system: NCI-H522
SK-MEL-2 = system: SK-MEL-2
SNB-75 = system: SNB-75
SK-MEL-28 = system: SK-MEL-28
SR = system: SR

## O=c1[nH]ncc2[nH]c3c(c12)CCCc1ccccc1-3
PC-3
  GI50: 64.1 µM (inactive)
HOP-62
  GI50: 67 µM (inactive)
OVCAR-5
  GI50: 43.4 µM (inactive)
OVCAR-4
  GI50: 44.5 µM (inactive)
Malme-3M
  GI50: 96.2 µM (inactive)
SW-620
  GI50: 43.2 µM (inactive)
SK-MEL-5
  GI50: 22.4 µM (inactive)
UACC-62
  GI50: 23.7 µM (inactive)
SF-268
  GI50: 23.6 µM (inactive)
U-251
  GI50: 38.6 µM (inactive)
M14
  GI50: 46.6 µM (inactive)
COLO 205
  GI50: 20.5 µM (inactive)
EKVX
  GI50: 4.92 µM (inactive)
RPMI-8226
  GI50: 27.8 µM (inactive)
CCRF-CEM
  GI50: 39.9 µM (inactive)
IGROV-1
  GI50: 55.2 µM (inactive)
OVCAR-8
  GI50: 53.6 µM (inactive)
NCI-H23
  GI50: 40.6 µM (inactive)
SNB-19
  GI50: 71.6 µM (inactive)
DU-145
  GI50: 54.5 µM (inactive)
786-0
  GI50: 33 µM (inactive)
MCF7
  GI50: 29.4 µM (inactive)
MDA-MB-435
  GI50: 25.7 µM (inactive)
T47D
  GI50: 46.9 µM (inactive)
NCI/ADR-RES
  GI50: 37.9 µM (inactive)
Hs-578T
  GI50: 5.53 µM (inactive)
KM12
  GI50: 37.4 µM (inactive)
SF-295
  GI50: 32.5 µM (inactive)
HT-29
  GI50: 31.1 µM (inactive)
SN12C
  GI50: 63.1 µM (inactive)
UO-31
  GI50: 43.4 µM (inactive)
HCC 2998
  GI50: 27.9 µM (inactive)
NCI-H226
  GI50: 38.7 µM (inactive)
SK-OV-3
  GI50: 28.6 µM (inactive)
K562
  GI50: 12.9 µM (inactive)
CAKI-1
  GI50: 35.2 µM (inactive)
OVCAR-3
  GI50: 48.4 µM (inactive)
HOP-92
  GI50: 72.3 µM (inactive)
HCT-15
  GI50: 28.5 µM
MOLT-4
  GI50: 17.5 µM (inactive)
RXF 393
  GI50: 15.1 µM (inactive)
LOX IMVI
  GI50: 44.3 µM (inactive)
HL-60
  GI50: 21.8 µM (inactive)
A498
  GI50: 27.6 µM (inactive)
MDA-N
  GI50: 29.6 µM (inactive)
NCI-H460
  GI50: 29.7 µM (inactive)
ACHN
  GI50: 32.8 µM (inactive)
BT-549
  GI50: 32.9 µM (inactive)
UACC-257
  GI50: 71.8 µM (inactive)
SF-539
  GI50: 30.1 µM (inactive)
HCT-116
  GI50: 27.4 µM (inactive)
A549
  GI50: 33.3 µM (inactive)
TK-10
  GI50: 50.1 µM (inactive)
NCI-H522
  GI50: 48.9 µM (inactive)
SK-MEL-2
  GI50: 34.9 µM (inactive)

## CN(C)CCCNC(=O)c1cc(NC(=O)c2cc(NC(=O)CCCn3c4ccccc4c4ccccc43)cn2C)cn1C
PC-3
  GI50: 19.2 µM (inactive)
HOP-62
  GI50: 13.6 µM (inactive)
OVCAR-5
  GI50: 20.1 µM (inactive)
OVCAR-4
  GI50: 15.5 µM (inactive)
Malme-3M
  GI50: 6.03 µM (inactive)
SW-620
  GI50: 7.94 µM (inactive)
SK-MEL-5
  GI50: 5.81 µM (inactive)
SF-268
  GI50: 13.5 µM (inactive)
U-251
  GI50: 11.4 µM (inactive)
M14
  GI50: 4.41 µM (inactive)
COLO 205
  GI50: 2.15 µM (inactive)
EKVX
  GI50: 15.3 µM (inactive)
RPMI-8226
  GI50: 3.08 µM (inactive)
CCRF-CEM
  GI50: 7.71 µM (inactive)
IGROV-1
  GI50: 26.5 µM (inactive)
OVCAR-8
  GI50: 22.8 µM (inactive)
NCI-H23
  GI50: 14.8 µM (inactive)
SNB-19
  GI50: 10.5 µM (inactive)
DU-145
  GI50: 17.9 µM (inactive)
786-0
  GI50: 13.5 µM (inactive)
MCF7
  GI50: 5.89 µM (inactive)
MDA-MB-435
  GI50: 9.29 µM (inactive)
T47D
  GI50: 7.03 µM (inactive)
NCI/ADR-RES
  GI50: 19.6 µM (inactive)
Hs-578T
  GI50: 15.5 µM (inactive)
KM12
  GI50: 6.28 µM (inactive)
SF-295
  GI50: 18.5 µM (inactive)
HT-29
  GI50: 2.59 µM (inactive)
SN12C
  GI50: 14.3 µM (inactive)
UO-31
  GI50: 25.6 µM (inactive)
HCC 2998
  GI50: 5.52 µM (inactive)
SK-OV-3
  GI50: 12 µM (inactive)
K562
  GI50: 3.13 µM (inactive)
CAKI-1
  GI50: 19.1 µM (inactive)
OVCAR-3
  GI50: 13.4 µM (inactive)
HOP-92
  GI50: 14.7 µM (inactive)
HCT-15
  GI50: 28.1 µM
MOLT-4
  GI50: 2.02 µM (inactive)
RXF 393
  GI50: 12.6 µM (inactive)
SNB-75
  GI50: 14.4 µM (inactive)
LOX IMVI
  GI50: 6.59 µM (inactive)
HL-60
  GI50: 11.6 µM (inactive)
A498
  GI50: 19.3 µM (inactive)
SK-MEL-28
  GI50: 21.6 µM (inactive)
NCI-H460
  GI50: 10.1 µM (inactive)
ACHN
  GI50: 27.2 µM (inactive)
BT-549
  GI50: 15 µM (inactive)
UACC-257
  GI50: 15.9 µM (inactive)
SF-539
  GI50: 20.4 µM (inactive)
HCT-116
  GI50: 3.27 µM (inactive)
A549
  GI50: 17.5 µM (inactive)
TK-10
  GI50: 12.4 µM (inactive)
NCI-H522
  GI50: 14.2 µM (inactive)
SK-MEL-2
  GI50: 24.8 µM (inactive)

## CC1(C)O[C@H]2OC(CO[Si](C)(C)C(C)(C)C)C(N=[N+]=[N-])[C@H]2O1 (some centres not stated)
PC-3
  GI50: 20.3 µM (inactive)
HOP-62
  GI50: 19.2 µM (inactive)
OVCAR-5
  GI50: 20.5 µM (inactive)
OVCAR-4
  GI50: 26.3 µM (inactive)
Malme-3M
  GI50: 17.1 µM (inactive)
SW-620
  GI50: 21.5 µM (inactive)
UACC-62
  GI50: 19.1 µM (inactive)
SF-268
  GI50: 20.7 µM (inactive)
U-251
  GI50: 20.6 µM (inactive)
M14
  GI50: 19.2 µM (inactive)
EKVX
  GI50: 22.8 µM (inactive)
RPMI-8226
  GI50: 13 µM (inactive)
CCRF-CEM
  GI50: 16.6 µM (inactive)
IGROV-1
  GI50: 3.04 µM (inactive)
OVCAR-8
  GI50: 20.1 µM (inactive)
NCI-H23
  GI50: 19.2 µM (inactive)
SNB-19
  GI50: 17.7 µM (inactive)
786-0
  GI50: 18.2 µM (inactive)
MCF7
  GI50: 20.7 µM (inactive)
MDA-MB-435
  GI50: 25.8 µM (inactive)
NCI/ADR-RES
  GI50: 18.1 µM (inactive)
Hs-578T
  GI50: 23.6 µM (inactive)
KM12
  GI50: 18.7 µM (inactive)
SF-295
  GI50: 11.8 µM (inactive)
HT-29
  GI50: 12.5 µM (inactive)
SN12C
  GI50: 20 µM (inactive)
UO-31
  GI50: 17.2 µM (inactive)
SR
  GI50: 12.4 µM (inactive)
HCC 2998
  GI50: 17.8 µM (inactive)
NCI-H226
  GI50: 20 µM (inactive)
SK-OV-3
  GI50: 14 µM (inactive)
K562
  GI50: 13.3 µM (inactive)
CAKI-1
  GI50: 23.8 µM (inactive)
OVCAR-3
  GI50: 22.7 µM (inactive)
HOP-92
  GI50: 23.9 µM (inactive)
HCT-15
  GI50: 21.1 µM
MOLT-4
  GI50: 17 µM (inactive)
RXF 393
  GI50: 16.6 µM (inactive)
SNB-75
  GI50: 28.4 µM (inactive)
LOX IMVI
  GI50: 21 µM (inactive)
HL-60
  GI50: 7.31 µM (inactive)
A498
  GI50: 25 µM (inactive)
MDA-N
  GI50: 23.7 µM (inactive)
SK-MEL-28
  GI50: 24.7 µM (inactive)
NCI-H460
  GI50: 26.2 µM (inactive)
ACHN
  GI50: 18.7 µM (inactive)
BT-549
  GI50: 21.6 µM (inactive)
UACC-257
  GI50: 18 µM (inactive)
SF-539
  GI50: 20 µM (inactive)
HCT-116
  GI50: 15.6 µM (inactive)
A549
  GI50: 18.2 µM (inactive)
TK-10
  GI50: 19.1 µM (inactive)
SK-MEL-2
  GI50: 17.2 µM (inactive)
